Results as given in article PMC9354954, “Assessing Bioavailability and Bioactivity of 4-Hydroxythiazolidine-2-Thiones, Newly Discovered Glucosinolate Degradation Products Formed During Domestic Boiling of Cabbage” (Frontiers in Nutrition, 2022).

Key:
[1] = parameters: method as in PMID 35761548; settings: recently calculated; cited from earlier work
HepG2 cells = assay: Uptake into HepG2 cells (supernatant before and after cell lysis, LC-MS/MS); format: in vitro ADME, human; settings: for Amount of analyte in supernatant after cell lysis / Amount of analyte in supernatant before cell lysis / Increase due to cell lysis: HepG2, 100 μM, 24 h
Procedure: Cells originated from a human liver cancer cell line (HepG2) were grown in RPMI-1640 medium + 10% FBS + 1% penicillin/streptomycin under cell culture conditions (37°C and 5% CO2 atmosphere) in T-75 flasks (Sarsted, Nümbrecht, Germany) until a confluence of approximately 50%. This medium and growing conditions were used for all experiments with HepG2 cells in this study. The medium was exchanged by fresh medium for control samples, or by fresh medium containing a concentration of 100 μM allyl HTT or 4-MSOB HTT. Afterward, the cells were incubated for an additional 24 h (each prepared for three cell passages). In the case of cell experiments, all allyl HTT or 4-MSOB HTT spiked media were sterile filtered using Filtropur S 0.2 sterile from Sarstedt AG & Co (Nümbrecht, Germany). After treatment, the medium of HepG2 cells (~80% confluence) was removed and cells were washed three times with 6 mL of PBS. In a second approach performed only for 4-MSOB HTT, treated cells were washed 6 times with 6 mL of PBS. The higher number of washing steps in the case of 4-MSOB HTT was chosen to remove the analyte residues from the former treatment medium more effectively. This enabled to detect a significant increase in analyte amount due to cell lysis when comparing the analyte amount in the supernatant before and after cell lysis, as only three washing steps for allyl HTT and control were not sufficient to detect a significant difference in 4-MSOB HTT amounts due to cell lysis treatment. Afterward, cells were detached from the surface by incubation with 1.5 mL trypsin/EDTA (1 x) for 5 min at 37°C. The cell suspension was transferred into a 2-mL micro reaction vessel and centrifuged for 2 min at 560 g. Then, the cell pellet was washed carefully twice with 1.5 mL of pure water to remove further residues of the analyte spiked medium and to reduce the salt concentration in the samples for LC-MS/MS measurements. For cell lysis, the micro reaction vessels with cell pellet and approximately 60 μL supernatant were sonicated for 15 min in an ultrasonic bath, followed by the addition of 40 μL of MeCN and an additional sonication step for 15 min. Afterward, the cell suspension was centrifuged for 3 min at 4,000 g, and the supernatant, as well as the supernatant before cell lysis, were analyzed by LC-MS/MS. A standard addition method was used, with added amounts of 3 pmol of allyl HTT and 1.2 pmol of 4-MSOB HTT. The mass spectrometry parameters were like QTRAP method 1 (see Section Uptake and Excretion of 4-Hydroxythiazolidine-2-Thiones From a Red Cabbage Meal – A Human Self-Experiment) with an injection volume of 10 μL. The used HPLC method 3 was a gradient of A = water and B = MeCN with 0 to 5 min 2% B, an increase to 14 min up to 98% B, holding for 5 min followed by a decrease to 2% B at 20 min and re-equilibration with 2% B for 4 min, using a flow rate of 300 μL/min, Agilent Zorbax Eclipse Plus C8 column (see Section Stability of 4-Hydroxythiazolidine-2-Thiones in a Stomach Model) and a column oven temperature of 35°C. The given results are the mean of the three biological replicates ± SD. […] The significance of the difference in analyte amount before and after cell lysis was determined by t-test for independent samples per variable using the STATISTICA version 13.5 software (StatSoft, Hamburg, Germany) with a significance level of p ≤ 0.05.

[2] = Antioxidant potential, ABTS assay; settings: compared to compound free blank
Procedure: To evaluate the potential of allyl HTT and 4-MSOB HTT to act as antioxidants, ABTS and DPPH were used as model radicals and Trolox as reference antioxidants based on Shalaby and Shanab ([28]). In total, 1.5 mg of ABTS and 0.26 mg potassium peroxodisulfate were dissolved in 4 mL of pure water and incubated in the dark overnight at room temperature. Afterward, 36 mL of MeOH were added to obtain the fresh ABTS working solution. In the case of the DPPH assay, 1.1 mg of DPPH were dissolved in 4 mL of MeOH and incubated for 2 h in the dark at 4°C, followed by the addition of 36 mL of MeOH to obtain the fresh DPPH working solution. Standards of Trolox, allyl HTT, and 4-MSOB HTT were prepared in water/MeOH (90/10, v/v%) at concentrations in the range of 6.25–100 μM. To detect the antioxidant potential, 100 μL of standard or water/MeOH (90/10, v/v%) as control were added to 1,000 μL of ABTS or DPPH working solution, and the extinction was measured directly after mixing and after 6 min of incubation in the dark with a spectrometer (UviLine 9100, Schott Instruments, Mainz, Germany) at 734 nm in the case of ABTS assay and 515 nm in DPPH assay (each prepared as duplicate). The results are reported as mean ± SD of the reduction of the extinction compared to the control.

| Compound | calculated log P (partition coefficient in octanol/water) [1] | Amount of analyte in supernatant after cell lysis (HepG2 cells; 3 washing steps) | Amount of analyte in supernatant before cell lysis (HepG2 cells; 3 washing steps) | Increase due to cell lysis (HepG2 cells; 3 washing steps) | Amount of analyte in supernatant after cell lysis (HepG2 cells; 6 washing steps) | Amount of analyte in supernatant before cell lysis (HepG2 cells; 6 washing steps) | Increase due to cell lysis (HepG2 cells; 6 washing steps) | Relative signal reduction of the extinction value of the radical ABTS ([2]; 6.25 µM) | Relative signal reduction of the extinction value of the radical ABTS ([2]; 12.5 µM) | Relative signal reduction of the extinction value of the radical ABTS ([2]; 25 µM) | Relative signal reduction of the extinction value of the radical ABTS ([2]; 50 µM) | Relative signal reduction of the extinction value of the radical ABTS ([2]; 100 µM) | measured ratio for the higher uptake of allyl HTT compared to 4-MSOB HTT (HepG2 cells; HepG2 cells) |
| --- | --- | --- | --- | --- | --- | --- | --- | --- | --- | --- | --- | --- | --- |
| C[S+]([O-])CCCCN1C(=S)SCC1O (stereo not shown) [4-MSOB HTT, 4-hydroxy-3-(4-(methylsulfinyl)butyl)thiazolidine-2-thione] | −1.12 | 810 ± 140 fmol | 760 ± 190 fmol | 56 ± 55 fmol | 21 ± 5 fmol | 1.7 ± 0.3 fmol | 20 ± 5 fmol | 0.6 ± 0.5% | -0.1 ± 0.5% | -0.5 ± 0.4% | 1.1 ± 0.8% | 0.4 ± 0.5% |  |
| C=CCN1C(=S)SCC1O (stereo not shown) [allyl HTT, 3-allyl-4-hydroxythiazolidine-2-thione] | 0.47 | 1,060 ± 140 fmol | 520 ± 170 fmol | 540 ± 160 fmol |  |  |  | -0.2 ± 0.3% | -0.3 ± 0.3% | 0.4 ± 0.4% | 0.3 ± 0.5% | -0.3 ± 0.3% | 27 fold |
